Some test systems named below: BT-549; COLO 205; DU-145; HCT-15; Hs-578T; MCF7; MDA-MB-231; NCI-H226; RXF 393; SF-268; SF-295; SK-MEL-5; U-251; UACC-257; MDA-MB-435.
Holding throughout (assay): NCI anticancer screen, dose series, 48 h

Structures are written as SMILES.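 Compound exposure: 48 hours, 5 concentrations, 96-well plates. The concentration for 50% growth inhibition is given as GI50.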 The source made the active and inactive calls. Rule as the data show it: active = GI50 up to about 1.1 µM and inactive = higher.

Turning to `Nc1nc(O)c2[nH]cnc2[n+]1[O-]`, the GI50 in the assay on BT-549 was > 100 µM (inactive); with COLO 205, > 100 µM (inactive); in the assay with DU-145, > 100 µM (inactive); in the assay with HCT-15 it was over 100 µM; in the assay on Hs-578T, > 100 µM (inactive); with MCF7, 37.1 µM (inactive). The GI50 in the assay on MDA-MB-231, in the assay on NCI-H226, in the assay with RXF 393, in the assay with SF-268, in the assay with SF-295 and in the assay on SK-MEL-5 was > 100 µM (inactive) throughout. Moreover, the GI50 with U-251 and in the assay with UACC-257 was > 100 µM (inactive) each time.
As to `COc1cccc(C2c3cc4c(cc3OC(N3CCOCC3)C2C)OCO4)c1` (stereo unspecified), the GI50 was 3.39 µM (inactive) in the assay on BT-549; 11.3 µM (inactive) with COLO 205; 31.8 µM (inactive) in the assay on DU-145; 6.31 µM in the assay on HCT-15; 13.9 µM (inactive) in the assay on Hs-578T; 6.61 µM (inactive) in the assay on MCF7. Besides, the GI50 in the assay on MDA-MB-231 was 35.1 µM (inactive); in the assay with NCI-H226, 15.6 µM (inactive); with SF-268, 16.7 µM (inactive); in the assay on SF-295, 9.64 µM (inactive); in the assay on SK-MEL-5, 4.37 µM (inactive); in the assay on UACC-257, 14.8 µM (inactive).
As for `COc1ccc(-c2cs/c(=N\c3ccccc3)n2CCCN(C)C)cc1`, the GI50 in the assay with BT-549 was 19.2 µM (inactive); in the assay on HCT-15 it was 24.8 µM; in the assay with MDA-MB-231 it was 44.2 µM (inactive); in the assay on MDA-MB-435, 18.4 µM (inactive); with NCI-H226 it was 18.2 µM (inactive); in the assay on RXF 393, 12.2 µM (inactive). For the same compound, the GI50 is 24.3 µM (inactive) in the assay on SF-268, 13 µM (inactive) with SF-295, 43.4 µM (inactive) in the assay with U-251 and 18.9 µM (inactive) in the assay on UACC-257.
On to `O=c1cc(O)c1=O`, for which the GI50 in the assay with BT-549 was > 100 µM (inactive); with COLO 205, > 100 µM (inactive); in the assay on DU-145, > 100 µM (inactive); in the assay on HCT-15 it was over 100 µM; in the assay with Hs-578T, > 100 µM (inactive); in the assay with MCF7 it was > 100 µM (inactive). In addition, the GI50 in the assay with MDA-MB-231 is > 10 µM (inactive); with MDA-MB-435, > 100 µM (inactive); in the assay with NCI-H226 it was > 100 µM (inactive); in the assay on SF-268, 61.2 µM (inactive); in the assay on SF-295, > 100 µM (inactive); in the assay with SK-MEL-5, > 100 µM (inactive). The GI50 with U-251 and in the assay on UACC-257 was > 100 µM (inactive) throughout.
For the compound `CSc1sc(C)cc1-c1nsc(=O)o1`, the GI50 in the assay on COLO 205 is > 100 µM (inactive); in the assay with DU-145 it was > 100 µM (inactive); in the assay on HCT-15, over 100 µM; in the assay with Hs-578T, > 100 µM (inactive); in the assay on MCF7, > 100 µM (inactive); in the assay with MDA-MB-435, > 100 µM (inactive). Further, the GI50 with RXF 393, in the assay on SF-268, with SF-295, with SK-MEL-5, with U-251 and in the assay with UACC-257 was > 100 µM (inactive) throughout.
For `O=C1C(Cl)C2(CC(/C=C/c3cccs3)=NN2c2cccc(S(=O)(=O)O)c2)N1c1nc2ccccc2s1` (stereo unspecified), the GI50 was 55.6 µM (inactive) in the assay with BT-549; > 100 µM (inactive) in the assay on COLO 205; 21.6 µM (inactive) in the assay with DU-145; 75.9 µM in the assay on HCT-15; > 100 µM (inactive) with Hs-578T; 46.6 µM (inactive) in the assay with MCF7. For the same compound, the GI50 in the assay with MDA-MB-231 is > 100 µM (inactive); in the assay with MDA-MB-435, 45.8 µM (inactive); in the assay on NCI-H226, 27.9 µM (inactive); in the assay with RXF 393 it was > 100 µM (inactive); in the assay with SF-268, > 100 µM (inactive); with SK-MEL-5, 16.9 µM (inactive). Also, the GI50 in the assay with U-251 was 99.8 µM (inactive); in the assay on UACC-257, 76.9 µM (inactive).
Take `C#CCN(Cc1ccc2nc(-c3ccccc3)c(Cl)nc2c1)c1ccc(F)cc1`: the GI50 in the assay on BT-549 was > 100 µM (inactive); in the assay on COLO 205, 51.3 µM (inactive); with DU-145 it was 95.7 µM (inactive); in the assay on HCT-15 it was 87.1 µM; in the assay with Hs-578T it was > 100 µM (inactive); with MCF7 it was 63.8 µM (inactive). The GI50 with MDA-MB-231 is > 100 µM (inactive); with MDA-MB-435, > 100 µM (inactive); in the assay on SF-268, > 100 µM (inactive); in the assay on SF-295, > 100 µM (inactive); with SK-MEL-5 it was 23.1 µM (inactive); with U-251 it was > 100 µM (inactive). In the assay on UACC-257, the GI50 was > 100 µM (inactive).
In the case of `COc1nc(N=P(c2ccccc2)(c2ccccc2)c2ccccc2)cc(=O)n1C`, the GI50 is > 100 µM (inactive) in the assay on BT-549; > 100 µM (inactive) in the assay with COLO 205; > 100 µM (inactive) in the assay with DU-145; over 100 µM in the assay on HCT-15; > 100 µM (inactive) with Hs-578T; > 100 µM (inactive) in the assay with MCF7. The GI50 in the assay with MDA-MB-231, in the assay with MDA-MB-435, in the assay on NCI-H226, in the assay on RXF 393, in the assay with SF-268 and with SF-295 was > 100 µM (inactive) each time. Besides, the GI50 in the assay on SK-MEL-5, with U-251 and in the assay on UACC-257 was > 100 µM (inactive) in each case.
As to `Cn1c(=O)c(Cl)c(N=[N+]=[N-])c2ccccc21`, the GI50 was > 100 µM (inactive) in the assay with COLO 205; > 100 µM (inactive) in the assay with DU-145; over 100 µM in the assay on HCT-15; > 100 µM (inactive) in the assay on Hs-578T; 67.3 µM (inactive) in the assay with MCF7; 60.5 µM (inactive) in the assay with MDA-MB-231. Also, the GI50 is 39.8 µM (inactive) in the assay on NCI-H226; 69.2 µM (inactive) in the assay on RXF 393; > 100 µM (inactive) with SF-268; > 100 µM (inactive) with SF-295; 65.5 µM (inactive) with SK-MEL-5; > 100 µM (inactive) in the assay on U-251. Also, in the assay with UACC-257, the GI50 was > 100 µM (inactive).
As to `COc1cc2c(cc1OC)C1(COc3cc(O)c(O)c(O)c3C1=O)C2` (stereo unspecified), the GI50 with COLO 205 was > 50 µM (inactive); with DU-145 it was > 50 µM (inactive); in the assay on HCT-15, over 50 µM; in the assay with Hs-578T, 16.4 µM (inactive); in the assay with MCF7, 0.005 µM (active); in the assay with MDA-MB-231, > 50 µM (inactive). In addition, the GI50 with MDA-MB-435 is > 50 µM (inactive); with NCI-H226, > 50 µM (inactive); with RXF 393, > 50 µM (inactive); in the assay with SF-268, > 50 µM (inactive); in the assay on SF-295, 25.9 µM (inactive); in the assay on SK-MEL-5, > 50 µM (inactive). The GI50 with U-251 and with UACC-257 was > 50 µM (inactive) throughout.
`CC1=CC(=O)CC2(C)CCC(C(C)CC(=O)CC(C)C)CC12` (stereo unspecified): the GI50 in the assay with COLO 205 is 17.3 µM (inactive); in the assay with DU-145, 62.4 µM (inactive); in the assay with HCT-15, 38.6 µM; in the assay with Hs-578T it was > 100 µM (inactive); with MCF7, 25.6 µM (inactive); in the assay on MDA-MB-231, 42.8 µM (inactive). Also, the GI50 with MDA-MB-435 was 20.3 µM (inactive); with NCI-H226, 24.9 µM (inactive); with RXF 393 it was 23.6 µM (inactive); in the assay on SF-268 it was 55.8 µM (inactive); with SF-295 it was 32.5 µM (inactive); in the assay with SK-MEL-5, 20.4 µM (inactive). Besides, the GI50 was 41.9 µM (inactive) in the assay on U-251 and 23.9 µM (inactive) in the assay on UACC-257.
Turning to `CCCCCCCc1cscc1-c1cscc1Br`, the GI50 is > 100 µM (inactive) in the assay with BT-549; 18 µM (inactive) with COLO 205; 48.4 µM (inactive) in the assay with DU-145; 36.1 µM in the assay with HCT-15; 34.8 µM (inactive) in the assay with MCF7; 52.2 µM (inactive) with MDA-MB-231. The GI50 in the assay on MDA-MB-435 is 35.9 µM (inactive); in the assay on NCI-H226, 65.2 µM (inactive); in the assay with RXF 393, 27 µM (inactive); in the assay on SF-268 it was > 100 µM (inactive); in the assay on SF-295, 26 µM (inactive); in the assay on SK-MEL-5 it was 28.4 µM (inactive). The GI50 was 39.3 µM (inactive) in the assay with U-251 and 31.6 µM (inactive) in the assay with UACC-257.
With `O=c1oc2ccc(-n3c(=O)c4ccccc4c4ccccc4c3=O)cc2c2ccccc12`, the GI50 is 57.1 µM (inactive) with BT-549; > 100 µM (inactive) in the assay with COLO 205; over 100 µM with HCT-15; 27 µM (inactive) in the assay on Hs-578T; > 100 µM (inactive) in the assay with MCF7; > 100 µM (inactive) in the assay with MDA-MB-231. The GI50 with MDA-MB-435 is > 100 µM (inactive); in the assay on NCI-H226 it was > 100 µM (inactive); with RXF 393, 85.1 µM (inactive); in the assay on SF-268 it was 50 µM (inactive); in the assay with SF-295 it was > 100 µM (inactive); in the assay with SK-MEL-5, > 100 µM (inactive). The GI50 with U-251 was 20.8 µM (inactive); in the assay on UACC-257, > 100 µM (inactive).
`CN(C)CCCNC(=S)S`: the GI50 with BT-549 is > 100 µM (inactive); in the assay with COLO 205 it was > 100 µM (inactive); in the assay with DU-145, > 100 µM (inactive); in the assay with HCT-15, over 100 µM; in the assay with Hs-578T, > 100 µM (inactive); in the assay on MCF7, > 100 µM (inactive). The GI50 in the assay with MDA-MB-231, in the assay on MDA-MB-435, in the assay with NCI-H226, in the assay on RXF 393, with SF-268 and in the assay with SF-295 was > 100 µM (inactive) each time. Besides, the GI50 in the assay on SK-MEL-5, in the assay with U-251 and in the assay with UACC-257 was > 100 µM (inactive) throughout.
As for `O=c1c2cc(I)ccc2nc(-c2cccs2)n1O`, the GI50 with BT-549 is 33.2 µM (inactive); with COLO 205, > 100 µM (inactive); in the assay on DU-145, 27.7 µM (inactive); in the assay on HCT-15 it was 33.9 µM; with MCF7, 50 µM (inactive); with MDA-MB-435, 34.8 µM (inactive). Further, the GI50 was 52.6 µM (inactive) in the assay on NCI-H226; > 100 µM (inactive) with RXF 393; 38.4 µM (inactive) in the assay with SF-268; 31.1 µM (inactive) in the assay on SF-295; 45.1 µM (inactive) in the assay with SK-MEL-5; 30.1 µM (inactive) in the assay with U-251. In the assay on UACC-257, the GI50 is 59 µM (inactive).

The record behind these values is ChEMBL document CHEMBL1201862, “PubChem BioAssay data set” (2004).
